Tests used:
Experiment in all cases: relative viability (nuclei count vs DMSO), 5 days (fraction); higher = more cells survive
[1] = compound: CN(C)C(=N)NC(=N)N [Metformin] + COc1cc2c(Oc3ccc(NC(=O)C4(C(=O)Nc5ccc(F)cc5)CC4)cc3F)ccnc2cc1OCCCN1CCOCC1 [Foretinib] (partner 0.25 µM)
In short: (§1)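 Each reported value is a median over duplicate plates. It expresses relative viability: treated-well nuclei count divided by vehicle-well nuclei count. Lung cancer cell lines in 1536-well plates were dosed by pin tool a day after seeding, alone with one drug or with a fixed anchor-drug dose plus five library-drug doses (not always all listed) in √10 steps, and nuclei were counted after 5 days.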

[2] = compound: CN(C)C(=N)NC(=N)N [Metformin] + O=C(CCCCCCC(=O)Nc1ccccc1)NO [Vorinostat] (partner 1 µM)
In short: as §1

[3] = compound: N#CC1(c2ccc(NC(=O)c3cccnc3NCc3ccncc3)cc2)CCCC1 [Apatinib] + CC(=O)Nc1cccc(-n2c(=O)n(C3CC3)c(=O)c3c(Nc4ccc(I)cc4F)n(C)c(=O)c(C)c32)c1 [Trametinib] (partner 0.02 µM)
In short: as §1

[4] = compound: N#CC1(c2ccc(NC(=O)c3cccnc3NCc3ccncc3)cc2)CCCC1 [Apatinib] + CC1(C)CCC(c2ccc(Cl)cc2)=C(CN2CCN(c3ccc(C(=O)NS(=O)(=O)c4ccc(N[C@H](CCN5CCOCC5)CSc5ccccc5)c(S(=O)(=O)C(F)(F)F)c4)cc3)CC2)C1 [Navitoclax] (partner 0.5 µM)
In short: as §1

## NCI-H647
[1]; first compound 10 µM
  relative viability: 1.08
[1]; first compound 31.62 µM
  relative viability: 1.07
[1]; first compound 100 µM
  relative viability: 1.26
[1]; first compound 316.23 µM
  relative viability: 0.932
[1]; first compound 1000 µM
  relative viability: 1.1
[2]; first compound 10 µM
  relative viability: 0.705
[2]; first compound 31.62 µM
  relative viability: 0.5
[2]; first compound 100 µM
  relative viability: 0.64
[2]; first compound 316.23 µM
  relative viability: 0.56
[2]; first compound 1000 µM
  relative viability: 0.588
[3]; first compound 0.08 µM
  relative viability: 0.547
[3]; first compound 0.253 µM
  relative viability: 0.501
[3]; first compound 0.8 µM
  relative viability: 0.457
[3]; first compound 2.53 µM
  relative viability: 0.439
[3]; first compound 8 µM
  relative viability: 0.315
[4]; first compound 0.08 µM
  relative viability: 1.3
[4]; first compound 0.253 µM
  relative viability: 1.29
[4]; first compound 0.8 µM
  relative viability: 1.04
[4]; first compound 2.53 µM
  relative viability: 0.975
[4]; first compound 8 µM
  relative viability: 0.779

## NCI-H1793
[1]; first compound 10 µM
  relative viability: 0.78
[1]; first compound 100 µM
  relative viability: 1.01
[1]; first compound 316.23 µM
  relative viability: 0.743
[1]; first compound 1000 µM
  relative viability: 1.18
[2]; first compound 10 µM
  relative viability: 0.943
[2]; first compound 31.62 µM
  relative viability: 0.832
[2]; first compound 100 µM
  relative viability: 0.727
[2]; first compound 316.23 µM
  relative viability: 0.662
[2]; first compound 1000 µM
  relative viability: 1.02
[3]; first compound 0.08 µM
  relative viability: 0.432
[3]; first compound 0.253 µM
  relative viability: 0.449
[3]; first compound 0.8 µM
  relative viability: 0.443
[3]; first compound 2.53 µM
  relative viability: 0.34
[3]; first compound 8 µM
  relative viability: 0.301
[4]; first compound 0.08 µM
  relative viability: 0.343
[4]; first compound 0.253 µM
  relative viability: 0.712
[4]; first compound 0.8 µM
  relative viability: 0.441
[4]; first compound 2.53 µM
  relative viability: 0.29
[4]; first compound 8 µM
  relative viability: 0.283

## NCI-H1437
[1]; first compound 10 µM
  relative viability: 1.3
[1]; first compound 31.62 µM
  relative viability: 1.31
[1]; first compound 100 µM
  relative viability: 1.32
[1]; first compound 316.23 µM
  relative viability: 1.29
[1]; first compound 1000 µM
  relative viability: 1.21
[2]; first compound 10 µM
  relative viability: 1.1
[2]; first compound 31.62 µM
  relative viability: 1.34
[2]; first compound 100 µM
  relative viability: 0.993
[2]; first compound 316.23 µM
  relative viability: 0.961
[2]; first compound 1000 µM
  relative viability: 1.01
[3]; first compound 0.08 µM
  relative viability: 0.526
[3]; first compound 0.253 µM
  relative viability: 0.532
[3]; first compound 0.8 µM
  relative viability: 0.433
[3]; first compound 2.53 µM
  relative viability: 0.314
[3]; first compound 8 µM
  relative viability: 0.348
[4]; first compound 0.08 µM
  relative viability: 1.12
[4]; first compound 0.253 µM
  relative viability: 1.14
[4]; first compound 0.8 µM
  relative viability: 0.939
[4]; first compound 2.53 µM
  relative viability: 0.928
[4]; first compound 8 µM
  relative viability: 0.776

## SW 1573
[1]; first compound 10 µM
  relative viability: 0.955
[1]; first compound 31.62 µM
  relative viability: 1.04
[1]; first compound 100 µM
  relative viability: 0.914
[1]; first compound 316.23 µM
  relative viability: 0.788
[1]; first compound 1000 µM
  relative viability: 1.1
[2]; first compound 10 µM
  relative viability: 0.724
[2]; first compound 31.62 µM
  relative viability: 0.722
[2]; first compound 100 µM
  relative viability: 0.68
[2]; first compound 316.23 µM
  relative viability: 0.701
[2]; first compound 1000 µM
  relative viability: 0.755
[3]; first compound 0.08 µM
  relative viability: 0.554
[3]; first compound 0.253 µM
  relative viability: 0.729
[3]; first compound 0.8 µM
  relative viability: 0.543
[3]; first compound 2.53 µM
  relative viability: 0.603
[3]; first compound 8 µM
  relative viability: 0.352
[4]; first compound 0.08 µM
  relative viability: 1.01
[4]; first compound 0.253 µM
  relative viability: 1
[4]; first compound 0.8 µM
  relative viability: 1.19
[4]; first compound 2.53 µM
  relative viability: 0.927
[4]; first compound 8 µM
  relative viability: 0.885

## SW 900
[1]; first compound 10 µM
  relative viability: 0.919
[1]; first compound 31.62 µM
  relative viability: 0.884
[1]; first compound 100 µM
  relative viability: 0.736
[1]; first compound 316.23 µM
  relative viability: 0.846
[1]; first compound 1000 µM
  relative viability: 0.882
[2]; first compound 10 µM
  relative viability: 0.548
[2]; first compound 31.62 µM
  relative viability: 0.765
[2]; first compound 316.23 µM
  relative viability: 0.457
[2]; first compound 1000 µM
  relative viability: 0.682
[3]; first compound 0.08 µM
  relative viability: 0.757
[3]; first compound 0.253 µM
  relative viability: 0.801
[3]; first compound 0.8 µM
  relative viability: 0.772
[3]; first compound 2.53 µM
  relative viability: 0.623
[3]; first compound 8 µM
  relative viability: 0.642

## LCLC-103H
[1]; first compound 10 µM
  relative viability: 0.823
[1]; first compound 31.62 µM
  relative viability: 1.09
[1]; first compound 100 µM
  relative viability: 0.881
[1]; first compound 316.23 µM
  relative viability: 0.781
[1]; first compound 1000 µM
  relative viability: 0.923
[2]; first compound 10 µM
  relative viability: 0.569
[2]; first compound 31.62 µM
  relative viability: 0.79
[2]; first compound 100 µM
  relative viability: 0.795
[2]; first compound 316.23 µM
  relative viability: 0.788
[2]; first compound 1000 µM
  relative viability: 0.873
[3]; first compound 0.08 µM
  relative viability: 0.702
[3]; first compound 0.253 µM
  relative viability: 0.699
[3]; first compound 0.8 µM
  relative viability: 0.722
[3]; first compound 2.53 µM
  relative viability: 0.713
[3]; first compound 8 µM
  relative viability: 0.688

## BEN
[1]; first compound 10 µM
  relative viability: 1.08
[1]; first compound 31.62 µM
  relative viability: 1.25
[1]; first compound 100 µM
  relative viability: 1.04
[1]; first compound 316.23 µM
  relative viability: 0.799
[1]; first compound 1000 µM
  relative viability: 1.33
[2]; first compound 10 µM
  relative viability: 0.56
[2]; first compound 31.62 µM
  relative viability: 0.728
[2]; first compound 100 µM
  relative viability: 0.64
[2]; first compound 316.23 µM
  relative viability: 0.494
[2]; first compound 1000 µM
  relative viability: 0.625
[3]; first compound 0.08 µM
  relative viability: 1.22
[3]; first compound 0.253 µM
  relative viability: 0.944
[3]; first compound 0.8 µM
  relative viability: 1.11
[3]; first compound 2.53 µM
  relative viability: 0.948
[3]; first compound 8 µM
  relative viability: 0.687
[4]; first compound 0.08 µM
  relative viability: 0.0553
[4]; first compound 0.253 µM
  relative viability: 0.0606
[4]; first compound 0.8 µM
  relative viability: 0.0462
[4]; first compound 2.53 µM
  relative viability: 0.0661
[4]; first compound 8 µM
  relative viability: 0.0637

## EKVX
[1]; first compound 10 µM
  relative viability: 0.456
[1]; first compound 31.62 µM
  relative viability: 1.03
[1]; first compound 100 µM
  relative viability: 0.886
[1]; first compound 1000 µM
  relative viability: 0.303
[2]; first compound 31.62 µM
  relative viability: 0.67
[2]; first compound 100 µM
  relative viability: 0.655
[2]; first compound 316.23 µM
  relative viability: 0.644
[2]; first compound 1000 µM
  relative viability: 0.762
[3]; first compound 0.08 µM
  relative viability: 0.419
[3]; first compound 0.253 µM
  relative viability: 0.362
[3]; first compound 0.8 µM
  relative viability: 0.32
[3]; first compound 2.53 µM
  relative viability: 0.392
[3]; first compound 8 µM
  relative viability: 0.251
[4]; first compound 0.08 µM
  relative viability: 0.882
[4]; first compound 0.253 µM
  relative viability: 0.946
[4]; first compound 0.8 µM
  relative viability: 0.98
[4]; first compound 2.53 µM
  relative viability: 0.888
[4]; first compound 8 µM
  relative viability: 0.826

## NCI-H2347
[1]; first compound 10 µM
  relative viability: 0.844
[1]; first compound 31.62 µM
  relative viability: 0.578
[1]; first compound 100 µM
  relative viability: 0.784
[1]; first compound 316.23 µM
  relative viability: 0.885
[1]; first compound 1000 µM
  relative viability: 0.459
[2]; first compound 10 µM
  relative viability: 0.602
[2]; first compound 31.62 µM
  relative viability: 0.619
[2]; first compound 100 µM
  relative viability: 0.71
[2]; first compound 316.23 µM
  relative viability: 0.575
[2]; first compound 1000 µM
  relative viability: 0.599
[3]; first compound 0.08 µM
  relative viability: 0.294
[3]; first compound 0.253 µM
  relative viability: 0.228
[3]; first compound 0.8 µM
  relative viability: 0.249
[3]; first compound 2.53 µM
  relative viability: 0.291
[3]; first compound 8 µM
  relative viability: 0.268
[4]; first compound 0.08 µM
  relative viability: 0.783
[4]; first compound 0.253 µM
  relative viability: 0.698
[4]; first compound 0.8 µM
  relative viability: 0.948
[4]; first compound 2.53 µM
  relative viability: 0.728
[4]; first compound 8 µM
  relative viability: 0.74
